Laboratory results from patent US20120010260A1, “METHOD FOR TREATING NERVOUS SYSTEM DISORDERS AND CONDITIONS” (priority 2004, published 2012).
Several values for one entry are separate records, joined by “and”; a condition that tells them apart may be missing. Equal entries are not always repeated.

Legend:
[1] = system: Male Sprague-Dawley rats with L5/L6 spinal nerve ligation; assay: Spinal nerve ligation (SNL) model of neuropathic pain, tactile hypersensitivity (von Frey); format: in vivo; conditions: rat, 30 mg/kg IP, FIG. 7
Description: Subjects. Male Sprague-Dawley rats (Indianapolis, Ind.) weighing 150 to 200 g at time of arrival, were individually housed in wire cages in a climate-controlled room. A 12-hour light/dark cycle (lights on at 0630) was in effect, and food and water were available ad libitum.
Surgery—Spinal Nerve Ligation. Rats were anesthetized with 3.5% halothane in O2 at 1 L/min and maintained with 1.5% halothane in O2 during surgery. Ligation of the L5 and L6 nerves was produced by an incision through the left paraspinal muscles. The left L5 and L6 spinal nerves were isolated adjacent to the vertebral column and ligated tightly with 6-0 silk suture just distal to the dorsal root ganglion. […]
Assessment of tactile hypersensitivity. […] Baseline tactile sensitivity was assessed using a series of calibrated von Frey monofilaments (Stoelting; Wood Dale, Ill.) 0 to 3 days before surgery. […] The ability of a single dose of test compound to reverse established hypersensitivity was assessed using a time course procedure. […]
Results are presented as the 50% threshold values (50% threshold in g force) estimated by the Dixon non-parametric test. […] Significant main effects were analyzed further by subsequent least significant difference analysis. […]
Reversal of tactile hypersensitivity was defined as a return to baseline of the tactile sensitivity and was calculated according to the following equation: […]

[2] = target: T1, human dopamine transporter (hDAT) (Homo sapiens, UniProt Q01959); assay: Dopamine transporter (hDAT) membrane binding assay, 3H-WIN 35,428
T1 construct: purchased Perkin Elmer RBHDATM
T1 sequence (Q01959 whole entry): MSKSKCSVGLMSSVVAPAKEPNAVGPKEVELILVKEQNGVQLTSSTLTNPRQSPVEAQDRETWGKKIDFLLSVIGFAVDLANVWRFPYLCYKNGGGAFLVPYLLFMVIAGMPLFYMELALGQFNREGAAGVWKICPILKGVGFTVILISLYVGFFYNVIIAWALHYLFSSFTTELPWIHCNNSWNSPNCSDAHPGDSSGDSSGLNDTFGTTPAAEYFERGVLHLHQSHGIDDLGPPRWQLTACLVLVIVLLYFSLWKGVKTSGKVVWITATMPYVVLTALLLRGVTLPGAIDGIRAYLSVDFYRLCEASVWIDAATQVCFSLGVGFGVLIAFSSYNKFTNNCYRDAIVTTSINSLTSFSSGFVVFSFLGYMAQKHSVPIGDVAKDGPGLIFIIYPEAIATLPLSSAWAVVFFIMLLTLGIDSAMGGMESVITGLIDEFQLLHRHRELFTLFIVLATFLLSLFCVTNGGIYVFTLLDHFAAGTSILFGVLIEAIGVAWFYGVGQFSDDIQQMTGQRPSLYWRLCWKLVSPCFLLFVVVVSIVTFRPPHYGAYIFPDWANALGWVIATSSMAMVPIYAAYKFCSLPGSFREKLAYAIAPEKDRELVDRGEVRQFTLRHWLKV

[3] = system: ovariectomized (OVX) rats, tail skin temperature (TST); assay: Telemetry rat model of ovariectomy-induced thermoregulatory dysfunction (tail skin temperature); format: in vivo; conditions: 30 mg/kg, sc; p<0.05 compared to vehicle control
Description: This model has been modified from a previously reported protocol describing estrogen regulation of diurnal tail skin temperature (TST) patterns (Berendsen, et al., European Journal of Pharmacology, 2001, 419(1): 47-54). […] A temperature and physical activity transmitter (PhysioTel TA10TA-F40, Data Sciences International) was implanted subcutaneously in the dorsal scapular region and the tip of the temperature probe was tunneled subcutaneously 2.5 cm beyond the base of the tail. After a 7-day recovery period, TST readings were continuously recorded for the remainder of the study. Tail skin temperature readings were collected from each animal every 5 minutes with values obtained over a 10 second sampling period. The day before test day, an average baseline TST value was calculated for each animal by averaging temperature readings recorded during the 12 hour active (dark) phase. […]
Statistical analysis: Evaluation of a compound's ability to restore normal lowering of TST in the telemetry model was analyzed using hourly TST values calculated for each animal by averaging the 12 temperature readings obtained every 5 minutes over that recording time. […]
The effect of test compound is measured by evaluating the following parameters in this model: onset of action, duration of effect on TST, maximal change in TST and mean change in TST over the duration of the compound effect.

[4] = target: human norepinephrine transporter (hNET) (Homo sapiens, UniProt P23975); conditions: read-out: hNET function uptake (EC50 in nm); MDCK-Net6 cells, [3H]NE uptake
human norepinephrine transporter (hNET), sequence (P23975 whole entry): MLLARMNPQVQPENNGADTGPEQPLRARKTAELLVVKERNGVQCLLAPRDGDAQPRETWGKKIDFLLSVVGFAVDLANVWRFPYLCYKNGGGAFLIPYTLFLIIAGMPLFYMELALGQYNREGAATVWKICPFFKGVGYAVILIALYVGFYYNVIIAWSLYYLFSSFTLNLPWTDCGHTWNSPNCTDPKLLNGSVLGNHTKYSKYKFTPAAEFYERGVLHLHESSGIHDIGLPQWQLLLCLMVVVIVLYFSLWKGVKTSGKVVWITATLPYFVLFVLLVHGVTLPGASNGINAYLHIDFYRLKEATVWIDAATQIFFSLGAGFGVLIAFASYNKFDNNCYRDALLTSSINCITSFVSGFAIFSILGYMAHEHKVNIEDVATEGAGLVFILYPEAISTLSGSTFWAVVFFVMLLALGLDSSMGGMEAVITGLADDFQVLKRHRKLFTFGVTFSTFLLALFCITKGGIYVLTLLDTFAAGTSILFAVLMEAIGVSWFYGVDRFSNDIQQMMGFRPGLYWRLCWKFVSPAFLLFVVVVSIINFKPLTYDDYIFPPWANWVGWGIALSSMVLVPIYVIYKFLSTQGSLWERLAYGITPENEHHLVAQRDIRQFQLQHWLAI

[5] = target: T2, human serotonin transporter (hSERT) (Homo sapiens, UniProt P31645); assay: Serotonin (5-HT) uptake assay (hSERT function uptake) in JAR cells; format: cell-based; conditions: [3H]5-HT uptake
T2 construct: cells were stimulated with staurosporine (40 nM) to increase the expression of the 5-HT transporter; host or cells: JAR (human placental choriocarcinoma)
T2 sequence (P31645 whole entry): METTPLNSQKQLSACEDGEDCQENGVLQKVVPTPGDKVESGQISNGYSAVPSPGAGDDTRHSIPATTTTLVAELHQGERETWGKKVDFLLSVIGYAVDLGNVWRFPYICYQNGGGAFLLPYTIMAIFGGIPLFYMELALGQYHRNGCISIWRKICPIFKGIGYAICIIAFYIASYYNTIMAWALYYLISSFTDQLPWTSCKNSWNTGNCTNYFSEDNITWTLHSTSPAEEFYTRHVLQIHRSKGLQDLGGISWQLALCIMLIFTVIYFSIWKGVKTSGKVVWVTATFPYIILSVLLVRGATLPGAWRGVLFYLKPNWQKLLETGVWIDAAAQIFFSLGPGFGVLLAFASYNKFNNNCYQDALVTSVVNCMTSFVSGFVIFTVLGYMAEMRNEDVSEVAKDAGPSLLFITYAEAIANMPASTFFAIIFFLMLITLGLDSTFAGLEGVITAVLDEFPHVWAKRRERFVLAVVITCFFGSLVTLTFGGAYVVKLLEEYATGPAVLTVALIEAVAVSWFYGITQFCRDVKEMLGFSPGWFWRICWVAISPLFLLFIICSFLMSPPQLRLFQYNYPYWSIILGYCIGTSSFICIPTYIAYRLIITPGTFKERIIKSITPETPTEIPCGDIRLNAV
Description: The methods for 5-HT functional reuptake using the JAR cell line were modified using a previous literature report. […] On day 2, cells were stimulated with staurosporine (40 nM) to increase the expression of the 5-HT transporter. On day 3, cells were removed from the cell incubator two hours prior to assay and maintained at room temperature to equilibrate the growth medium to ambient oxygen concentration. […] Twenty-five microliters of assay buffer (maximum 5-HT uptake) or test compound were added directly to triplicate wells containing cells in 200 μl of assay buffer. The cells were incubated with the compound for 10 minutes (37° C.). […] The cells were incubated with the reaction mixture for 5 minutes at 37° C. The 5-HT uptake reaction was terminated by decanting the assay buffer.

hDAT binding (% I at 1 μM) ([2]; 1 μM)	hDAT binding (% I at 10 μM) [2]	EC50 [4]	EC50 [5]	SMILES	Reversal of tactile allodynia in the SNL neuropathic pain model [1]	Restoration of normal TST in OVX-induced thermoregulatory dysfunction telemetry model [3]
–	–	–	–	Clc1ccc(C23CNCC2C3)cc1Cl (racemic) [Racemic 1-(3,4-dichlorophenyl)-3-azabicyclo[3.1.0]hexane, 1-(3,4-dichlorophenyl)-3-azabicyclo[3.1.0]hexane]	significantly reverses tactile allodynia	–
26.5 % I	45 % I and 52.1 % I	–	–	Cc1ccc(C23CNCC2C3)cc1 (racemic) [Racemic 1-(4-methylphenyl)-3-azabicyclo[3.1.0]hexane, 1-(4-methylphenyl)-3-azabicyclo[3.1.0]hexane]	–	restores normal TST
–	51 % I	0.148 µM	7.35 µM	Cc1ccc(C23CNCC2C3)cc1 (single isomer, unassigned; (+)) [(+)-1-(4-methylphenyl)-3-azabicyclo[3.1.0]hexane]	–	restores normal TST
